{"source": "patent US12691101B2", "about": "“Compound and method for preventing or treating of respiratory diseases comprising the same as an active ingredient” (YONSEI UNIVERSITY, UNIVERSITY - INDUSTRY FOUNDATION (UIF), priority 2019, dated 2026)"}
{"target": "T1, human wild-type (WT)-pendrin (Homo sapiens, UniProt O43511)", "T1 construct": "expressed in transfected cells", "T1 sequence (O43511 1-780)": "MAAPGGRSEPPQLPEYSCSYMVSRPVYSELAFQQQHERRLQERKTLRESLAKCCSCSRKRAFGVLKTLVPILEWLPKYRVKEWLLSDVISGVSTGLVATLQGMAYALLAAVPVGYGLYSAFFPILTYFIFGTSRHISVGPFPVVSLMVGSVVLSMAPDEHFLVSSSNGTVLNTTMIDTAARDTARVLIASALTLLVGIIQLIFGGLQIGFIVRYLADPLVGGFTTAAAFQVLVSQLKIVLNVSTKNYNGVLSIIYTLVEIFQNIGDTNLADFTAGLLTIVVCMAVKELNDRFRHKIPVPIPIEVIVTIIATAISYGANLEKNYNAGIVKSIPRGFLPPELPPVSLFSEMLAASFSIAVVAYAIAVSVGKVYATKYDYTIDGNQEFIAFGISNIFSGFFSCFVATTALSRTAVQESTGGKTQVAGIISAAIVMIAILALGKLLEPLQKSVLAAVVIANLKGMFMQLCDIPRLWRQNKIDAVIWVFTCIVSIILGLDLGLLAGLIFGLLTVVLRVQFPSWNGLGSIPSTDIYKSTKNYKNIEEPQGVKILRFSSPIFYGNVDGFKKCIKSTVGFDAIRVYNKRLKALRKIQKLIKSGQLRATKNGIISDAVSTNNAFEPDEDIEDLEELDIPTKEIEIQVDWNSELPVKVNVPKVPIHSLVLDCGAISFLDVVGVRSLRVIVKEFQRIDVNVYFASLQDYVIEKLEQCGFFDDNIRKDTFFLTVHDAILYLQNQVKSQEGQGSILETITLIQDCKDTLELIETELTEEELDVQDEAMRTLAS", "assay": "Pendrin-mediated Cl^−/I^− exchange activity, YFP fluorescence in CHO-K1 cells", "type": "cell-based", "conditions": "30 μM", "units": {"Pendrin inhibitory activity at 30 μM (%)": "%"}}
{"smiles": "COC(=O)C(=Cc1ccc[nH]1)NC(=O)c1ccc(C(C)(C)C)cc1", "note": "[G23, Methyl-2-(4-(tert-butyl)benzamido)-3-(1H-pyrrol-2-yl)acrylate]", "Pendrin inhibitory activity at 30 μM (%)": 2.7}
{"target": "T1, human wild-type (WT)-pendrin", "assay": "Pendrin-mediated Cl^−/I^− exchange activity, YFP fluorescence in CHO-K1 cells", "type": "cell-based", "conditions": "CHO-K1, 30 μM; read-out: Pendrin inhibitory activity at 30 μM (%)", "units": {"inhibition at 30 µM": "%"}}
{"smiles": "COc1ccccc1C1=NC(=Cc2cnn(C)c2)C(=O)O1", "note": "[F125, 2-(2-methoxyphenyl)-4-((1-methyl-1H-pyrazol-4-yl)methylene)oxazol-5(4H)-one]", "inhibition at 30 µM": 1}
{"smiles": "COC(=O)c1ccc(C2=NC(=Cc3ccsc3)C(=O)O2)cc1", "note": "[F32, Methyl 4-(5-oxo-4-(thiophen-3-ylmethylene)-4,5-dihydrooxazol-2-yl)benzoate]", "inhibition at 30 µM": 3.7}
{"smiles": "COc1ccccc1C1=NC(=Cc2sc3nc(C)nc(C)c3c2C)C(=O)O1", "note": "[F113, 2-(2-Methoxyphenyl)-4-((2,4,5-trimethylthieno[2,3-d]pyrimidin-6-yl)methylene) oxazol-5(4H)-one]", "inhibition at 30 µM": 3.5}
{"smiles": "CC(C)(C)c1ccc(C2=NC(=Cc3ccccc3OS(=O)(=O)c3ccccc3)C(=O)O2)cc1", "note": "[F80, 2-((2-(4-(tert-butyl)phenyl)-5-oxooxazol-4(5H)-ylidene)methyl)phenylbenznesulfonate]", "inhibition at 30 µM": 1.9}
{"smiles": "O=C1OC(c2ccc3c(c2)OCO3)=NC1=Cc1cccs1", "note": "[F97, 2-(Benzo[d][1,3]dioxoyl-5-yl)-4-(thiophen-2-ylmethylene)oxazol-5(4H)-one]", "inhibition at 30 µM": 2.9}
{"smiles": "CCCCc1ccc(C2=NC(=Cc3ccco3)C(=O)O2)cc1", "note": "[F54, 2-(4-Butylphenyl)-4-(furan-2-ylmethylene)oxazol-5 (4H)-one]", "inhibition at 30 µM": 2.6}
{"smiles": "Cc1ccc(C=C2N=C(c3cccs3)OC2=O)s1", "note": "[F115, 4-((5-Methylthiophen-2-yl)methylene)-2-(thiophen-2-yl)oxazol-5(4H)-one]", "inhibition at 30 µM": 2.8}
{"smiles": "CCCCCCc1ccc(C2=NC(=Cc3cccs3)C(=O)O2)cc1", "note": "[F139, 2-(4-Hexylphenyl)-4-(thiophen-2-ylmethylene)oxazol-5 (4H)-one]", "inhibition at 30 µM": 2.5}
{"smiles": "O=C(O)C(=Cc1ccsc1)NC(=O)c1ccc2ccccc2c1", "note": "[G24, 2-(2-Naphthamido)-3-(thiophen-3-yl)acrylate]", "inhibition at 30 µM": 1.9}
{"smiles": "Cc1cc(C)cc(C2=NC(=Cc3ccc[nH]3)C(=O)O2)c1", "note": "[F149, 4-((1H-pyrrol-2-yl)methylene)-2-(3,5-dimethylphenyl)oxazol-5(4H)-one]", "inhibition at 30 µM": 4.8}
{"smiles": "CC(C)(C)c1ccc(C(=O)NC(=Cc2cc3ccccc3[nH]2)C(=O)O)cc1", "note": "[G33, 2-(4-(tert-butyl)benzamido)-3-(1H-indol-2-yl)acrylate]", "inhibition at 30 µM": 5.4}
{"smiles": "O=C1OC(c2ccccc2Cl)=NC1=Cc1cccs1", "note": "[F92, 2-(2-Chlorophenyl)-4-(thiophen-2-ylmethylene)oxazol-5(4H)-one]", "inhibition at 30 µM": 2.2}
{"smiles": "O=C1OC(c2ccc(C(F)(F)F)cc2)=NC1=Cc1ccsc1", "note": "[F18, 4-(Thiophen-3-ylmethylene)-2-(4-(trifluoromethyl)phenyl)oxazol-5(4H)-one]", "inhibition at 30 µM": 3.4}
{"smiles": "CCCCOc1ccc(C2=NC(=Cc3cccs3)C(=O)O2)cc1", "note": "[F142, 2-(4-Butoxyphenyl)-4-(thiophen-2-ylmethylene)oxazol-5 (4H)-one]", "inhibition at 30 µM": 2.4}
{"smiles": "O=C1OC(c2ccc(OCc3ccccc3)cc2)=NC1=Cc1cccs1", "note": "[F109, 2-(4-(Benzyloxy)phenyl)-4-(thiophen-2-ylmethylene)oxazol-5(4H)-one]", "inhibition at 30 µM": 2.4}
{"smiles": "CC(C)(C)c1ccc(C2=NC(=Cc3ccc(OCc4ccccc4)cc3)C(=O)O2)cc1", "note": "[F64, 4-(4-(Benzyloxy)benzylidene)-2-(4-(tert-butyl)phenyl)oxazol-5 (4H)-one]", "inhibition at 30 µM": 2.8}
{"smiles": "CC(C)Cc1ccc(C2=NC(=Cc3cccs3)C(=O)O2)cc1", "note": "[F14, 2-(4-Isobutylphenyl)-4-(thiophen-2-ylmethylene)oxazol-5 (4H)-one]", "inhibition at 30 µM": 33.1}
{"smiles": "CCCCOc1ccc(C(=O)NC(=Cc2cccs2)C(=O)O)cc1", "note": "[G36, 2-(4-Butoxybenzamido)-3-(thiophen-2-yl)acrylate]", "inhibition at 30 µM": 4.8}
{"smiles": "CCCc1ccc(C2=NC(=Cc3cccs3)C(=O)O2)cc1", "note": "[F144, 2-(4-Propylphenyl)-4-(thiophen-2-ylmethylene)oxazol-5(4H)-one]", "inhibition at 30 µM": 21.3}
{"smiles": "O=C1OC(c2ccccc2OC(F)F)=NC1=Cc1ccc(Br)s1", "note": "[F121, 4-((5-Bromothiophen-2-yl)methylene)-2-(2-(difluoromethoxy)phenyl)oxazol-5(4H)-one]", "inhibition at 30 µM": 3.4}
{"smiles": "CC(C)c1ccc(C2=NC(=Cc3ccsc3)C(=O)O2)cc1", "note": "[F47, 2-(4-Isopropylphenyl)-4-(thiophen-3-ylmethylene)oxazol-5(4H)-one]", "inhibition at 30 µM": 33.2}
{"smiles": "CCCc1ccc(C(=O)NC(=Cc2ccco2)C(=O)O)cc1", "note": "[G34, 3-(Furan-2-yl)-2-(4-propylbenzamido)acrylate]", "inhibition at 30 µM": 38.2}
{"smiles": "CC(C)(C)c1ccc(C(=O)NC(=Cc2csc3ccccc23)C(=O)O)cc1", "note": "[G25, 3-(Benzo[b]thiophen-3-yl)-2-(4-(tert-butyl)benzamido)acrylate]", "inhibition at 30 µM": 42.1}
{"smiles": "O=C1OC(c2ccccc2OC(F)F)=NC1=C/C=C/c1ccco1", "note": "[F135, 2-(2-(difluoromethoxy)phenyl)-4-((E)-3-(furan-2-yl)allylidene)oxazol-5 (4H)-one]", "inhibition at 30 µM": 2.8}
{"smiles": "CC(C)(C)c1ccc(C2=NC(=Cc3ccnc4ccccc34)C(=O)O2)cc1", "note": "[F13, 2-(4-(tert-butyl)phenyl)-4-(quinolin-4-ylmethylene)oxazol-5 (4H)-one]", "inhibition at 30 µM": 3.8}
{"smiles": "CC(C)(C)c1ccc(C2=NC(=Cc3cccn3-c3ccccc3)C(=O)O2)cc1", "note": "[F27, 2-(4-(tert-butyl)phenyl)-4-((1-phenyl-1H-pyrrol-2-yl)methylene)oxazol-5 (4H)-one]", "inhibition at 30 µM": 2.8}
{"smiles": "CCCCOc1ccc(C(=O)NC(=Cc2ccc[nH]2)C(=O)O)cc1", "note": "[G41, 2-(4-Butoxybenzamido)-3-(1H-pyrrol-2-yl)acrylate]", "inhibition at 30 µM": 25.1}
{"smiles": "O=C1OC(c2ccc(Cl)c([N+](=O)[O-])c2)=NC1=Cc1cccs1", "note": "[F91, 2-(4-Chloro-3-nitrophenyl)-4-(thiophen-2-ylmethylene)oxazol-5(4H)-one]", "inhibition at 30 µM": 3.9}
{"smiles": "Cc1[nH]c2ccccc2c1C=C1N=C(c2ccc(C(C)(C)C)cc2)OC1=O", "note": "[F3, 2-(4-(tert-butyl)phenyl)-4-((2-methyl-1H-indol-3-yl1)methylene)oxazol-5(4H)-one]", "inhibition at 30 µM": 4.3}
{"smiles": "O=C(O)C(=Cc1ccco1)NC(=O)c1ccc(C(F)(F)F)cc1", "note": "[G18, 3-(Furan-2-yl)-2-(4-(trifluoromethyl)benzamido)acrylate]", "inhibition at 30 µM": 2.7}
{"smiles": "Cc1ncsc1C=C1N=C(c2ccc(Br)cc2)OC1=O", "note": "[F22, 2-(4-Bromophenyl)-4-((4-methylthiazol-5-yl)methylene)oxazol-5(4H)-one]", "inhibition at 30 µM": 2.4}
{"smiles": "CC(C)NS(=O)(=O)c1ccc(C2=NC(=Cc3cccs3)C(=O)O2)cc1", "note": "[F36, N-isopropyl-4-(5-oxo-4-(thiophen-2-ylmethylene)-4,5-dihydrooxazol-2-yl)benzene sulfonamide]", "inhibition at 30 µM": 89.6}
{"smiles": "CCC(/C=C1\\Sc2ccc(OC)cc2N1CC)=C1N=C(c2ccccc2)OC1=O", "note": "[F68, 4-((Z)-1-(3-ethyl-5-methoxybenzo[d]thiazol-2(3H)-ylidene)butan-2-ylidene)-2-phenyloxazol-5(4H)-one]", "inhibition at 30 µM": 4.3}
{"smiles": "CC(C)(C)c1ccc(C(=O)NC(=Cc2ccco2)C(=O)O)cc1", "note": "[G5, 2-(4-(tert-butyl)benzamido)-3-(furan-2-yl)acrylate]", "inhibition at 30 µM": 60.9}
{"smiles": "CC(C)(C)c1ccc(C2=NC(=Cc3ccccc3OC(F)F)C(=O)O2)cc1", "note": "[F122, 2-(4-(tert-butyl)phenyl)-4-(2-(difluoromethoxy)benzylidene)oxazol-5(4H)-one]", "inhibition at 30 µM": 3.8}
{"smiles": "CC(=O)Nc1ccc(C2=NC(=Cc3cccs3)C(=O)O2)cc1", "note": "[F33, N-(4-(5-oxo-4-(thiophen-2-ylmethylene)-4,5-dihydrooxazol-2-yl)phenyl)acetamide]", "inhibition at 30 µM": 88.7}
{"smiles": "O=C1OC(c2cccc3ccccc23)=NC1=Cc1ccc[nH]1", "note": "[F30, 4-((1H-pyrrol-2-yl)methylene)-2-(naphthalen-1-yl)oxazol-5(4H)-one]", "inhibition at 30 µM": 3.9}
{"smiles": "O=C1OC(c2ccc(Cl)cc2)=NC1=Cc1cccs1", "note": "[F88, 2-(4-Chlorophenyl)-4-(thiophen-2-ylmethylene)oxazol-5(4H)-one]", "inhibition at 30 µM": 2.4}
{"smiles": "O=C1OC(c2ccc([N+](=O)[O-])cc2Cl)=NC1=Cc1cccs1", "note": "[F93, 2-(2-Chloro-4-nitrophenyl)-4-(thiophen-2-ylmethylene)oxazol-5(4H)-one]", "inhibition at 30 µM": 2.5}
{"smiles": "CCCCc1ccc(C(=O)NC(=Cc2cccs2)C(=O)O)cc1", "note": "[G12, 2-(4-Butylbenzamido)-3-(thiophen-2-yl)acrylate]", "inhibition at 30 µM": 48.1}
{"smiles": "CC(C)(C)c1ccc(C2=NC(=Cc3cncs3)C(=O)O2)cc1", "note": "[F2, 2-(4-(tert-butyl)phenyl)-4-(thiazol-5-ylmethylene)oxazol-5(4H)-one]", "inhibition at 30 µM": 57.5}
{"smiles": "CCCCCc1ccc(C(=O)NC(=Cc2cccs2)C(=O)O)cc1", "note": "[G40, 2-(4-Pentylbenzamido)-3-(thiophen-2-yl)acrylate]", "inhibition at 30 µM": 88.6}
{"target": "T1, human wild-type (WT)-pendrin", "assay": "Pendrin-mediated Cl^−/I^− exchange activity, YFP fluorescence in CHO-K1 cells", "type": "cell-based", "conditions": "compounds showing pendrin inhibitory activity of 50% or more at 30 μM; read-out: IC50", "units": {"IC50": "µM"}}
{"smiles": "CC(C)NS(=O)(=O)c1ccc(C2=NC(=Cc3cccs3)C(=O)O2)cc1", "note": "[F36, N-isopropyl-4-(5-oxo-4-(thiophen-2-ylmethylene)-4,5-dihydrooxazol-2-yl)benzene sulfonamide]", "IC50": "14.8 ± 2.01"}
{"smiles": "CC(C)(C)c1ccc(C(=O)NC(=Cc2ccco2)C(=O)O)cc1", "note": "[G5, 2-(4-(tert-butyl)benzamido)-3-(furan-2-yl)acrylate]", "IC50": "22.6 ± 2.46"}
{"smiles": "CC(=O)Nc1ccc(C2=NC(=Cc3cccs3)C(=O)O2)cc1", "note": "[F33, N-(4-(5-oxo-4-(thiophen-2-ylmethylene)-4,5-dihydrooxazol-2-yl)phenyl)acetamide]", "IC50": "9.3 ± 0.68"}
{"smiles": "CC(C)(C)c1ccc(C2=NC(=Cc3cncs3)C(=O)O2)cc1", "note": "[F2, 2-(4-(tert-butyl)phenyl)-4-(thiazol-5-ylmethylene)oxazol-5(4H)-one]", "IC50": "26.9 ± 2.95"}
{"smiles": "CCCCCc1ccc(C(=O)NC(=Cc2cccs2)C(=O)O)cc1", "note": "[G40, 2-(4-Pentylbenzamido)-3-(thiophen-2-yl)acrylate]", "IC50": "13.4 ± 1.69"}
